In patent publication US5393742A, “Preparation for treating renal disease” (MECT Corporation, priority 1990, dated 1995):
Where two headings read alike, the source gives them in different places.

Key:
[1] = tested on: Puromycin aminonucleoside (PAN) induced nephritis; format: in vivo, Male Sprague-Dawley (SD) rats
Protocol: Effect on Puromycin aminonucleoside (PAN) induced nephritis, i.e. PAN induced nephrosis or nephrotic syndrome:
Male Sprague-Dawley (SD) rats weighing 160-180 g were used.
As the nephritis, i.e. nephrosis or nephrotic syndrome, causing substance, PAN (made by Sigma Co., Ltd.) was used. As the test compound, sodium N-acetylneuraminate (made by MECT Corporation) was used.
PAN was intraperitoneally administered in an amount of 80 mg per 1 kg of body weight to rats to cause nephritis, i.e. nephrosis or nephrotic syndrome. Then, the test compound (Groups I, II or III) or physiological saline solution (Group IV) was intraperitoneally administered 3 times a day (morning, noon and evening) for 14 consecutive days immediately after treatment with PAN as follows. As a positive control, methylprednisolone was subcutaneously administered to rats of Group V once a day (noon) for 14 consecutive days immediately after treatment with PAN. Moreover, 3, 6, 9 and 13 days after treatment with PAN, 5 ml water was loaded, and the urine was collected for 6 hours. Fourteen days after treatment with PAN, autopsies were made, the kidneys were extirpated and their moist weights were measured.
Group I: 0.1 mg Sodium N-acetylneuraminate per 1 kg of body weight was administered.
Group II: 0.5 mg Sodium N-acetylneuraminate per 1 kg of body weight was administered.
Group III: 1.0 mg Sodium N-acetylneuraminate per 1 kg of body weight was administered.
Group IV: 2.5 ml Physiological saline solution per 1 kg of body weight was administered.
Group V: 2 mg Methylprednisolone per 1 kg of body weight was administered.
Group VI: Normal rats (no drug was given).
Regarding the results of therapeutic effect for treating renal disease (nephrotic syndrome) of the given NANA compound per Example 1 above, it will be appreciated that the test compound sodium N-acetylneuraminate (Groups I, II and III) was dissolved in physiological saline and intraperitoneally administered, compared to intraperitoneal administration of physiological saline alone (Group IV) and subcutaneous administration of methylprednisolone (Group V).

[2] = tested on: Male ddy mice; assay: Simplified acute toxicity test of N-acetylneuraminates in mice by intravenous injection; format: in vivo
Protocol: Simplified acute toxicity test:
A simplified acute toxicity test of N-acetylneuraminates in mice by intravenous injection was carried out as follows.
Lithium-, potassium-, barium- and magnesium- salts of N-acetylneuraminic acid were used (all were from MECT Corporation).
Body weights at the start of the test: 17.7-21.1 g
The number of animals at each level: 3 mice
(3) Room temperature: 23±1° C. - Humidity: 55±7%
The above-mentioned test compounds were dissolved in physiological saline solution to make a 0.2 ml solution per 20 g of body weight in a mouse as an injection fluid and injected into the tail vein. The doses were 500, 1,000 and 2,000 mg/kg.

[3] = 2.0 mg/kg s.c., once a day, 14 days after PAN, positive control

SMILES | The number of deaths per day course ([2]; 500 mg/kg i.v., 1 hrs) | The number of deaths per day course ([2]; 500 mg/kg i.v., 3 hrs) | The number of deaths per day course ([2]; 500 mg/kg i.v., 6 hrs) | The number of deaths per day course ([2]; 500 mg/kg i.v., 24 hrs) | The number of deaths per day course ([2]; 500 mg/kg i.v., 2 days) | The number of deaths per day course ([2]; 500 mg/kg i.v., 3 days) | The number of deaths per day course ([2]; 500 mg/kg i.v., 4 days) | The number of deaths per day course ([2]; 500 mg/kg i.v., 5 days) | The number of deaths per day course ([2]; 500 mg/kg i.v., 6 days) | Final Lethality ([2]; 500 mg/kg i.v., 7 days) | The number of deaths per day course ([2]; 500 mg/kg i.v., 7 days) | Final Lethality ([2]; 1000 mg/kg i.v., 7 days) | The number of deaths per day course ([2]; 1000 mg/kg i.v., 7 days) | The number of deaths per day course ([2]; 1000 mg/kg i.v., 1 hrs) | The number of deaths per day course ([2]; 1000 mg/kg i.v., 3 hrs) | The number of deaths per day course ([2]; 1000 mg/kg i.v., 6 hrs) | The number of deaths per day course ([2]; 1000 mg/kg i.v., 24 hrs) | The number of deaths per day course ([2]; 1000 mg/kg i.v., 2 days) | The number of deaths per day course ([2]; 1000 mg/kg i.v., 3 days) | Final Lethality ([2]; 2000 mg/kg i.v., 7 days) | other results
C[C@]12C=CC(=O)C=C1CC[C@@H]1[C@@H]2[C@@H](O)C[C@@]2(C)[C@H]1CC[C@]2(O)C(=O)CO [prednisolone, reference compound] | – | – | – | – | – | – | – | – | – | – | – | – | – | – | – | – | – | – | – | – | Effect on increase of kidney moist weight (in words) ([1]; PAN rats, 14 days): inhibits increase in kidney moist weight
CC(=O)N[C@H]1[C@H]([C@H](O)[C@H](O)CO)OC(O)(C(=O)O)C[C@@H]1O (stereo partly drawn) [Barium N-acetylneuraminate] | 3 | 0 | 0 | 0 | 0 | 0 | 0 | 0 | 0 | 3/3 | 0 | 3/3 | 0 | 3 | 0 | 0 | 0 | 0 | 0 | 3/3 | Deaths (in words) ([2]; 500 mg/kg i.v.): all 3 of the 3 mice; The number of deaths per day course ([2]; 1000 mg/kg i.v., 4 days): 0; The number of deaths per day course ([2]; 1000 mg/kg i.v., 5 days): 0; The number of deaths per day course ([2]; 1000 mg/kg i.v., 6 days): 0; The number of deaths per day course ([2]; 2000 mg/kg i.v., 7 days): 0; The number of deaths per day course ([2]; 2000 mg/kg i.v., 1 hrs): 3; The number of deaths per day course ([2]; 2000 mg/kg i.v., 3 hrs): 0; The number of deaths per day course ([2]; 2000 mg/kg i.v., 6 hrs): 0; The number of deaths per day course ([2]; 2000 mg/kg i.v., 24 hrs): 0; The number of deaths per day course ([2]; 2000 mg/kg i.v., 2 days): 0; The number of deaths per day course ([2]; 2000 mg/kg i.v., 3 days): 0; The number of deaths per day course ([2]; 2000 mg/kg i.v., 4 days): 0; The number of deaths per day course ([2]; 2000 mg/kg i.v., 5 days): 0; The number of deaths per day course ([2]; 2000 mg/kg i.v., 6 days): 0; Deaths (in words) ([2]; 1,000 and 2,000 mg/kg i.v.): all of the 3 mice died
C[C@H]1C[C@@H]2[C@H]([C@@H](O)C[C@@]3(C)[C@H]2CC[C@]3(O)C(=O)CO)[C@@]2(C)C=CC(=O)C=C12 [Methylprednisolone, methylprednisolone, reference compound] | – | – | – | – | – | – | – | – | – | – | – | – | – | – | – | – | – | – | – | – | Kidney Moist Weight [1, 3]: 0.43 ± 0.01 g/100 g; Weight Gain Rate [1, 3]: 107.7 ± 1.6%; Urinary Protein Content ([1]; 3rd Day, 2.0 mg/kg s.c., once a day): 22.3 ± 2.1 mg/24 hours; Urinary Protein Content ([1]; 6th Day, 2.0 mg/kg s.c., once a day): 55.8 ± 11.4 mg/24 hours; Urinary Protein Content ([1]; 9th Day, 2.0 mg/kg s.c., once a day): 68.7 ± 13.1 mg/24 hours; Urinary Protein Content ([1]; 13th Day, 2.0 mg/kg s.c., once a day): 56.1 ± 12.5 mg/24 hours; Effect on weight gain (in words) ([1]; PAN rats, 14 days): greater inhibition of weight gain; Effect on increase in urinary protein content (in words) ([1]; PAN rats, 6th, 9th and 13th day): inhibits increase in urinary protein content; Systemic side effect (in words) ([1]; rat, in vivo): greater systemic side effect
CC(=O)N[C@H]1[C@H]([C@H](O)[C@H](O)CO)OC(O)(C(=O)[O-])C[C@@H]1O.[K+] (stereo partly drawn) [Potassium N-acetylneuraminate] | 0 | 0 | 0 | 0 | 0 | 0 | 0 | 0 | 0 | 0/3 | 0 | 3/3 | 0 | 3 | 0 | 0 | 0 | 0 | 0 | 3/3 | The number of deaths per day course ([2]; 1000 mg/kg i.v., 4 days): 0; The number of deaths per day course ([2]; 1000 mg/kg i.v., 5 days): 0; The number of deaths per day course ([2]; 1000 mg/kg i.v., 6 days): 0; The number of deaths per day course ([2]; 2000 mg/kg i.v., 7 days): 0; The number of deaths per day course ([2]; 2000 mg/kg i.v., 1 hrs): 3; The number of deaths per day course ([2]; 2000 mg/kg i.v., 3 hrs): 0; The number of deaths per day course ([2]; 2000 mg/kg i.v., 6 hrs): 0; The number of deaths per day course ([2]; 2000 mg/kg i.v., 24 hrs): 0; The number of deaths per day course ([2]; 2000 mg/kg i.v., 2 days): 0; The number of deaths per day course ([2]; 2000 mg/kg i.v., 3 days): 0; The number of deaths per day course ([2]; 2000 mg/kg i.v., 4 days): 0; The number of deaths per day course ([2]; 2000 mg/kg i.v., 5 days): 0; The number of deaths per day course ([2]; 2000 mg/kg i.v., 6 days): 0; Deaths (in words) ([2]; 1,000 and 2,000 mg/kg i.v.): all of the 3 mice died
CC(=O)N[C@H]1[C@H]([C@H](O)[C@H](O)CO)OC(O)(C(=O)[O-])C[C@@H]1O.[Li+] (stereo partly drawn) [Lithium N-acetylneuraminate] | 0 | 0 | 0 | 0 | 0 | 0 | 0 | 0 | 0 | 0/3 | 0 | 0/3 | 0 | 0 | 0 | 0 | 0 | 0 | 0 | 0/3 | The number of deaths per day course ([2]; 1000 mg/kg i.v., 4 days): 0; The number of deaths per day course ([2]; 1000 mg/kg i.v., 5 days): 0; The number of deaths per day course ([2]; 1000 mg/kg i.v., 6 days): 0; The number of deaths per day course ([2]; 2000 mg/kg i.v., 7 days): 0; The number of deaths per day course ([2]; 2000 mg/kg i.v., 1 hrs): 0; The number of deaths per day course ([2]; 2000 mg/kg i.v., 3 hrs): 0; The number of deaths per day course ([2]; 2000 mg/kg i.v., 6 hrs): 0; The number of deaths per day course ([2]; 2000 mg/kg i.v., 24 hrs): 0; The number of deaths per day course ([2]; 2000 mg/kg i.v., 2 days): 0; The number of deaths per day course ([2]; 2000 mg/kg i.v., 3 days): 0; The number of deaths per day course ([2]; 2000 mg/kg i.v., 4 days): 0; The number of deaths per day course ([2]; 2000 mg/kg i.v., 5 days): 0; The number of deaths per day course ([2]; 2000 mg/kg i.v., 6 days): 0
CC(=O)N[C@H]1[C@H]([C@H](O)[C@H](O)CO)OC(O)(C(=O)O)C[C@@H]1O (stereo partly drawn) [Magnesium N-acetylneuraminate] | 0 | 0 | 0 | 0 | 0 | 0 | 0 | 0 | 0 | 0/3 | 0 | 3/3 | – | – | – | – | – | – | – | 3/3 | Deaths (in words) ([2]; 1,000 and 2,000 mg/kg i.v.): all of the 3 mice died
